Assay results: PMC12051620, “Molecular basis underlying the specificity of an antagonist AA92593 for mammalian melanopsins” (The Journal of Biological Chemistry, 2025)

How the values were obtained:
Test in all cases: GsX GloSensor assay with Gsα/q11
Format in all cases: cell-based
Details in all cases: 16.7 μM AA92593, COS-1 cells
[1] = tested on: jumping spider rhodopsin-1 I189^ECL2W
Excerpt: (§1) We next tested the effect of AA92593 on jumping spider rhodopsin-1, a Gq-coupled visual opsin but not melanopsin (see Figs. 2, S2, and S3) ([41]). Similar to non-mammalian-type and invertebrate melanopsins, jumping spider rhodopsin-1 was not sensitive to AA92593 as assessed using the GsX GloSensor assay (Fig. 7L). […] The introduction of I189^ECL2W/Y207^5.42F impaired the light-dependent cAMP responses even in the absence of AA92593 (Fig. S11). Taken together, the non-melanopsin Gq-coupled opsin cannot be functionally converted to an AA92593-sensitive type by site-directed mutagenesis, in contrast to non-mammalian-type and invertebrate melanopsins.
(§2) For GloSensor assay, opsins, GloSensor assay sensor (coded by pGlo-22F), and NanoBiT-tagged G proteins were transiently expressed in COS-1 cells (kindly provided from Dr David Farrens, Oregon Health and Science University) using PEI as described previously ([24], [52]). […] For GFP-fluorescence microscopy, a 35-mm cell culture dish (IWAKI) was transfected with 2 μg melanopsin-GFP plasmid and 8 μg PEI in 400 μl Opti-mem and 1.2 ml D-MEM. […]
(§3) The transfected COS-1 cells were incubated at 37 °C, 5% CO2 for 2 days, and the medium was aspirated and exchanged with 50 μl of HBSS (145 mM NaCl, 10 mM D-glucose, 5 mM KCl, 1 mM MgCl2, 1.7 mM CaCl2, 1.5 mM NaHCO3, 10 mM Hepes, pH 7.4), containing 33.3, 20, 10, 2, 0.2, 0.02, 0.002, or 0 μM AA92593, 0.5% dimetyl sulfoxide (DMSO), and 4% (vol/vol) GloSensor cAMP reagent stock solution. […] Then, the cells were incubated at room temperature for 1 h, and luminescence changes were monitored. After incubation of the cells with AA92593, luminescence measurement was interrupted, the plate was ejected, and the cells were added with 50 μl of HBSS containing 0.2 μM 9-cis-retinal. […] Luminescence was measured using GM-2000 or GM-3510 microplate reader (Promega). Luminescence level of each well was measured every 30 s with integration time of 0.6 to 0.9 s. […] After illumination, luminescence measurement was resumed. The measured luminescence levels were normalized to the level at the starting point (time = 0 min). […]

[2] = tested on: jumping spider rhodopsin-1 M94^2.61F/T188^ECL2S/L269^6.52S
Excerpt: as §1, §2, §3

[3] = tested on: jumping spider rhodopsin-1 Y207^5.42F
Excerpt: as §1, §2, §3

Measured: change in sensitivity to AA92593 vs WT

COc1ccc(S(=O)(=O)N2CCCCC2)cc1C [AA92593]
did not increase: all assays above
